Laboratory results reported in paper PMC5218480 (PLoS ONE, 2017).

Tested on: MV-4-11 cells
Test: Gene expression microarray analysis (Affymetrix PrimeView) and GSEA
Assay type: cell-based, human
Design: RFU PODN (11730768_x_at) / Fold change /veh PODN (11730768_x_at) / RFU LINC00158 (11744669_a_at) / Fold change /veh LINC00158 (11744669_a_at) / RFU DUSP10 (11751237_a_at) / Fold change /veh DUSP10 (11751237_a_at) / RFU ID3 (11757404_x_at) / Fold change /veh ID3 (11757404_x_at) / RFU PLEKHG5 (11737974_s_at) / Fold change /veh PLEKHG5 (11737974_s_at) / RFU LRRC4B (11730491_at) / Fold change /veh LRRC4B (11730491_at) / RFU GIMAP4 (11747438_a_at) / Fold change /veh GIMAP4 (11747438_a_at) / RFU KRT8 (11758183_x_at) / Fold change /veh KRT8 (11758183_x_at) / RFU CNN1 (11734310_a_at) / Fold change /veh CNN1 (11734310_a_at) / RFU VPS37D (11726825_at) / Fold change /veh VPS37D (11726825_at) / RFU C10orf10 (11716522_x_at) / Fold change /veh C10orf10 (11716522_x_at) / RFU KIR2DL2 /// KIR2DL4 /// KIR2DL5A /// KIR2DL5B /// KIR2DS1 /// KIR2DS2 /// KIR2DS3 /// KIR2DS4 /// KIR3DL3 /// KIR3DL3 /// KIR3DS1 (11738374_at) / Fold change /veh KIR2DL2 /// KIR2DL4 /// KIR2DL5A /// KIR2DL5B /// KIR2DS1 /// KIR2DS2 /// KIR2DS3 /// KIR2DS4 /// KIR3DL3 /// KIR3DL3 /// KIR3DS1 (11738374_at) / RFU C1QL1 (11718748_at) / Fold change /veh C1QL1 (11718748_at) / RFU TMPRSS4 (11747572_a_at) / Fold change /veh TMPRSS4 (11747572_a_at) / RFU HAMP (11756126_x_at) / Fold change /veh HAMP (11756126_x_at) / RFU RNFT2 (11725882_a_at) / Fold change /veh RNFT2 (11725882_a_at) / RFU NR4A2 (11747474_a_at) / Fold change /veh NR4A2 (11747474_a_at) / RFU ABCC12 (11746883_a_at) / Fold change /veh ABCC12 (11746883_a_at) / RFU TMEM136 (11760407_x_at) / Fold change /veh TMEM136 (11760407_x_at) / RFU CLDN22 /// WWC2 (11732394_at) / Fold change /veh CLDN22 /// WWC2 (11732394_at) / RFU HLA-DPB1 (11760878_x_at) / Fold change /veh HLA-DPB1 (11760878_x_at) / RFU SPINT1 (11716480_a_at) / Fold change /veh SPINT1 (11716480_a_at) / RFU GAP43 (11754022_s_at) / Fold change /veh GAP43 (11754022_s_at) / RFU A4GNT (11735810_at) / Fold change /veh A4GNT (11735810_at) / RFU PRB3 (11715151_x_at) / Fold change /veh PRB3 (11715151_x_at) / RFU TUBB4B (11761932_at) / Fold change /veh TUBB4B (11761932_at) / RFU CAPN14 (11732068_a_at) / Fold change /veh CAPN14 (11732068_a_at) / RFU TMCC2 (11721928_a_at) / Fold change /veh TMCC2 (11721928_a_at) / RFU IRGQ (11745062_a_at) / Fold change /veh IRGQ (11745062_a_at) / RFU FAM174B (11720279_a_at) / Fold change /veh FAM174B (11720279_a_at) / RFU TMPRSS4 (11748680_a_at) / Fold change /veh TMPRSS4 (11748680_a_at) / RFU FAM212B (11763350_a_at) / Fold change /veh FAM212B (11763350_a_at) / RFU PLEKHG5 (11743358_a_at) / Fold change /veh PLEKHG5 (11743358_a_at) / RFU ZSCAN30 (11745921_a_at) / Fold change /veh ZSCAN30 (11745921_a_at) / RFU CMKLR1 (11741424_a_at) / Fold change /veh CMKLR1 (11741424_a_at) / RFU LOC101060620 /// MAPK8IP1 (11723275_at) / Fold change /veh LOC101060620 /// MAPK8IP1 (11723275_at) / RFU SPTSSB (11747773_x_at) / Fold change /veh SPTSSB (11747773_x_at) / RFU PRSS12 (11739890_at) / Fold change /veh PRSS12 (11739890_at) / RFU BIN1 (11741810_x_at) / Fold change /veh BIN1 (11741810_x_at) / RFU WNT11 (11732464_a_at) / Fold change /veh WNT11 (11732464_a_at) / RFU C10orf10 (11716521_a_at) / Fold change /veh C10orf10 (11716521_a_at) / RFU C5orf56 (11738089_at) / Fold change /veh C5orf56 (11738089_at) / RFU CYB561 (11721691_x_at) / Fold change /veh CYB561 (11721691_x_at) / RFU ANKRD19P (11752326_a_at) / Fold change /veh ANKRD19P (11752326_a_at) / RFU OR2T12 /// OR2T33 /// OR2T8 (11738714_s_at) / Fold change /veh OR2T12 /// OR2T33 /// OR2T8 (11738714_s_at) / RFU VCAN (11748164_a_at) / Fold change /veh VCAN (11748164_a_at) / RFU JSRP1 (11732532_at) / Fold change /veh JSRP1 (11732532_at) / RFU KRTAP10-11 (11738290_x_at) / Fold change /veh KRTAP10-11 (11738290_x_at) / RFU MYO3A (11730013_a_at) / Fold change /veh MYO3A (11730013_a_at) / RFU EBF3 (11725865_a_at) / Fold change /veh EBF3 (11725865_a_at) / RFU CAMK2N1 (11719241_x_at) / Fold change /veh CAMK2N1 (11719241_x_at) / RFU C5orf56 (11738088_a_at) / Fold change /veh C5orf56 (11738088_a_at) / RFU OLFML3 (11715873_a_at) / Fold change /veh OLFML3 (11715873_a_at) / RFU LOC100653217 /// NTM (11731650_a_at) / Fold change /veh LOC100653217 /// NTM (11731650_a_at) / RFU MAPK11 (11762145_a_at) / Fold change /veh MAPK11 (11762145_a_at) / RFU FIZ1 (11724087_x_at) / Fold change /veh FIZ1 (11724087_x_at) / RFU OASL (11726364_x_at) / Fold change /veh OASL (11726364_x_at) / RFU SOX15 (11748057_x_at) / Fold change /veh SOX15 (11748057_x_at) / RFU CD79A (11719716_a_at) / Fold change /veh CD79A (11719716_a_at) / RFU HIST1H1D (11736915_at) / Fold change /veh HIST1H1D (11736915_at) / RFU CASKIN2 (11723855_a_at) / Fold change /veh CASKIN2 (11723855_a_at) / RFU LOC730098 (11760151_x_at) / Fold change /veh LOC730098 (11760151_x_at) / RFU OR4N2 (11742367_at) / Fold change /veh OR4N2 (11742367_at) / RFU PRRT2 (11749266_a_at) / Fold change /veh PRRT2 (11749266_a_at) / RFU SNX32 (11753110_a_at) / Fold change /veh SNX32 (11753110_a_at) / RFU CDHR5 (11726645_a_at) / Fold change /veh CDHR5 (11726645_a_at) / RFU RCAN1 (11760418_a_at) / Fold change /veh RCAN1 (11760418_a_at) / RFU FAM167A (11723789_a_at) / Fold change /veh FAM167A (11723789_a_at) / RFU FAM26E (11764081_at) / Fold change /veh FAM26E (11764081_at) / RFU ISYNA1 (11749810_s_at) / Fold change /veh ISYNA1 (11749810_s_at) / RFU ACY1 (11761880_at) / Fold change /veh ACY1 (11761880_at) / RFU 11764098_at / Fold change /veh 11764098_at / RFU SAMD14 (11745864_x_at) / Fold change /veh SAMD14 (11745864_x_at) / RFU NPB (11741838_a_at) / Fold change /veh NPB (11741838_a_at) / RFU TMPRSS6 (11731388_a_at) / Fold change /veh TMPRSS6 (11731388_a_at) / RFU KRTAP10-2 (11738614_at) / Fold change /veh KRTAP10-2 (11738614_at) / RFU ARHGAP8 /// PRR5-ARHGAP8 (11727945_x_at) / Fold change /veh ARHGAP8 /// PRR5-ARHGAP8 (11727945_x_at) / RFU KRTAP5-7 /// NADSYN1 (11734609_at) / Fold change /veh KRTAP5-7 /// NADSYN1 (11734609_at) / RFU RASL12 (11751679_a_at) / Fold change /veh RASL12 (11751679_a_at) / RFU CDKN2B (11736163_a_at) / Fold change /veh CDKN2B (11736163_a_at) / RFU PRF1 (11729649_at) / Fold change /veh PRF1 (11729649_at) / RFU, ZNF638 /// ZNF638-IT1 / Fold change vs veh, ZNF638 /// ZNF638-IT1 / RFU, PANK3 / Fold change vs veh, PANK3 / RFU, SH3YL1 / Fold change vs veh, SH3YL1 / RFU, ZEB2 / Fold change vs veh, ZEB2 / RFU, NRIP1 / Fold change vs veh, NRIP1 / RFU, PTTG1IP / Fold change vs veh, PTTG1IP / RFU, CAPN2 / Fold change vs veh, CAPN2 / RFU, MED14 / Fold change vs veh, MED14 / RFU, SNORA58 / Fold change vs veh, SNORA58 / RFU, C1orf63 / Fold change vs veh, C1orf63 / RFU, LRRFIP1 / Fold change vs veh, LRRFIP1 / RFU, NDUFAF7 / Fold change vs veh, NDUFAF7 / RFU, SLC12A2 / Fold change vs veh, SLC12A2 / RFU, IBTK / Fold change vs veh, IBTK / RFU, ESF1 / Fold change vs veh, ESF1 / Fold change vs veh, TMEM50B / RFU, TAOK1 / Fold change vs veh, TAOK1 / RFU, ACBD3 / Fold change vs veh, ACBD3 / RFU, TMA16 / Fold change vs veh, TMA16 / RFU, RWDD3 / Fold change vs veh, RWDD3 / RFU, BCAT1 / Fold change vs veh, BCAT1 / RFU, EDEM3 / Fold change vs veh, EDEM3 / RFU, TMEM33 / Fold change vs veh, TMEM33 / RFU, WDR75 / Fold change vs veh, WDR75 / RFU, AHCTF1 / Fold change vs veh, AHCTF1 / RFU, TFRC / Fold change vs veh, TFRC / RFU, ZDHHC17 / Fold change vs veh, ZDHHC17 / RFU, NOM1 / Fold change vs veh, NOM1 / RFU, ARL8B / Fold change vs veh, ARL8B / RFU, ZBTB11 / Fold change vs veh, ZBTB11 / RFU, TAMM41 / Fold change vs veh, TAMM41 / RFU, KIAA1704 /// LOC100996395 / Fold change vs veh, KIAA1704 /// LOC100996395 / RFU, ING1 / Fold change vs veh, ING1 / RFU, TRMT61B / Fold change vs veh, TRMT61B / RFU, FUBP3 / Fold change vs veh, FUBP3 / RFU, TP53 / Fold change vs veh, TP53 / RFU, TNKS2 / Fold change vs veh, TNKS2 / RFU, ZFP14 / Fold change vs veh, ZFP14 / RFU, ACTR2 / Fold change vs veh, ACTR2 / RFU, PPP3R1 / Fold change vs veh, PPP3R1 / RFU, PIK3R1 / Fold change vs veh, PIK3R1 / RFU, HNRNPA1 / Fold change vs veh, HNRNPA1 / RFU, RNF170 / Fold change vs veh, RNF170 / RFU, ZNF28 / Fold change vs veh, ZNF28 / RFU, RNGTT / Fold change vs veh, RNGTT / RFU, OGT / Fold change vs veh, OGT / RFU, BRD1 / Fold change vs veh, BRD1 / RFU, MARS / Fold change vs veh, MARS / RFU, ZNF655 / Fold change vs veh, ZNF655 / RFU, FAHD1 / Fold change vs veh, FAHD1 / RFU, BDP1 / Fold change vs veh, BDP1 / RFU, LRRCC1 / Fold change vs veh, LRRCC1 / RFU, ARID1A / Fold change vs veh, ARID1A / RFU, ZNF146 / Fold change vs veh, ZNF146 / RFU, ZNF330 / Fold change vs veh, ZNF330 / RFU, GPN3 / Fold change vs veh, GPN3 / RFU, C9orf123 / Fold change vs veh, C9orf123 / RFU, N4BP2L2 / Fold change vs veh, N4BP2L2 / RFU, ARFIP1 / Fold change vs veh, ARFIP1 / RFU, FAM179B / Fold change vs veh, FAM179B / RFU, BCL10 / Fold change vs veh, BCL10 / RFU, UHRF1BP1L / Fold change vs veh, UHRF1BP1L / RFU, BET1 / Fold change vs veh, BET1 / RFU, CNOT2 / Fold change vs veh, CNOT2 / RFU, ZNF268 / Fold change vs veh, ZNF268 / Fold change vs veh, ZNF507 / RFU, DGCR2 / Fold change vs veh, DGCR2 / RFU, WDSUB1 / Fold change vs veh, WDSUB1 / Fold change vs veh, HSP90B1 /// MIR3652 / RFU, ADSS / Fold change vs veh, ADSS / RFU, GK / Fold change vs veh, GK / RFU, ZNF148 / Fold change vs veh, ZNF148 / RFU, TAF9 / Fold change vs veh, TAF9 / RFU, SLC1A5 / Fold change vs veh, SLC1A5 / RFU, SLMO2 / Fold change vs veh, SLMO2 / RFU, ABCC4 / Fold change vs veh, ABCC4 / RFU, LOC101060439 /// RAP1B / Fold change vs veh, LOC101060439 /// RAP1B / RFU, RFX7 / Fold change vs veh, RFX7 / RFU, GTPBP10 / Fold change vs veh, GTPBP10 / RFU, CNEP1R1 / Fold change vs veh, CNEP1R1 / RFU, BIVM-ERCC5 /// ERCC5 / Fold change vs veh, BIVM-ERCC5 /// ERCC5 / RFU, ILF3 / Fold change vs veh, ILF3 / RFU 11762660_at / Fold change /veh 11762660_at / RFU VCAN (11757783_s_at) / Fold change /veh VCAN (11757783_s_at) / RFU DDX43 (11728927_at) / Fold change /veh DDX43 (11728927_at) / RFU KRT8 (11758188_x_at) / Fold change /veh KRT8 (11758188_x_at) / RFU NKD1 (11759106_at) / Fold change /veh NKD1 (11759106_at) / RFU SRD5A1 (11742802_a_at) / Fold change /veh SRD5A1 (11742802_a_at) / RFU TPSAB1 /// TPSB2 (11721975_s_at) / Fold change /veh TPSAB1 /// TPSB2 (11721975_s_at) / RFU GSTM3 (11746129_a_at) / Fold change /veh GSTM3 (11746129_a_at) / RFU IL23R (11737362_x_at) / Fold change /veh IL23R (11737362_x_at) / RFU TMEM51 (11727254_a_at) / Fold change /veh TMEM51 (11727254_a_at) / RFU PIWIL2 (11732686_x_at) / Fold change /veh PIWIL2 (11732686_x_at) / RFU ORM1 (11744905_x_at) / Fold change /veh ORM1 (11744905_x_at) / RFU CCDC152 (11743942_at) / Fold change /veh CCDC152 (11743942_at) / RFU ECM1 (11717891_a_at) / Fold change /veh ECM1 (11717891_a_at) / RFU IL23R (11748794_a_at) / Fold change /veh IL23R (11748794_a_at) / RFU TNFAIP8L3 (11732012_x_at) / Fold change /veh TNFAIP8L3 (11732012_x_at) / RFU MBOAT4 (11741988_at) / Fold change /veh MBOAT4 (11741988_at) / RFU 11764193_at / Fold change /veh 11764193_at / RFU TMEM53 (11763286_at) / Fold change /veh TMEM53 (11763286_at) / RFU MAGEB2 (11727129_at) / Fold change /veh MAGEB2 (11727129_at) / RFU TMEM200A (11744735_a_at) / Fold change /veh TMEM200A (11744735_a_at) / RFU CCDC152 (11751479_a_at) / Fold change /veh CCDC152 (11751479_a_at) / RFU FAM211A (11726209_a_at) / Fold change /veh FAM211A (11726209_a_at) / RFU RGS16 (11746705_a_at) / Fold change /veh RGS16 (11746705_a_at) / RFU VCAN (11755009_s_at) / Fold change /veh VCAN (11755009_s_at) / RFU RHOB (11743442_s_at) / Fold change /veh RHOB (11743442_s_at) / RFU RGS16 (11720943_a_at) / Fold change /veh RGS16 (11720943_a_at) / RFU RGS16 (11720944_at) / Fold change /veh RGS16 (11720944_at) / RFU, VPS4B / Fold change vs veh, VPS4B / RFU, CREB1 / Fold change vs veh, CREB1 / RFU, DNAJC13 / Fold change vs veh, DNAJC13 / RFU, GNAQ / Fold change vs veh, GNAQ / RFU, CDK5R1 / Fold change vs veh, CDK5R1 / RFU, ZRANB3 / Fold change vs veh, ZRANB3 / RFU, CUL4A / Fold change vs veh, CUL4A / RFU, CCNY / Fold change vs veh, CCNY / RFU, UFL1 / Fold change vs veh, UFL1 / RFU, COG3 / Fold change vs veh, COG3 / RFU, DIAPH2 / Fold change vs veh, DIAPH2 / RFU, SKA2 / Fold change vs veh, SKA2 / RFU, AFF3 / Fold change vs veh, AFF3 / RFU, LMF1 / Fold change vs veh, LMF1 / RFU, IPO11 / Fold change vs veh, IPO11 / RFU, DFFB / Fold change vs veh, DFFB / RFU, FOXP1 / Fold change vs veh, FOXP1 / RFU, CARD8 / Fold change vs veh, CARD8 / RFU, STRN3 / Fold change vs veh, STRN3 / RFU, ADK / Fold change vs veh, ADK / RFU, RASSF2 / Fold change vs veh, RASSF2 / RFU, WIPF1 / Fold change vs veh, WIPF1 / RFU, LARP1B / Fold change vs veh, LARP1B / RFU, RASA1 / Fold change vs veh, RASA1 / RFU, RB1 / Fold change vs veh, RB1 / RFU, PPFIA1 / Fold change vs veh, PPFIA1 / RFU, MAT2A / Fold change vs veh, MAT2A / RFU, CCT5 / Fold change vs veh, CCT5 / RFU, WDR92 / Fold change vs veh, WDR92 / RFU, CUX1 / Fold change vs veh, CUX1 / RFU, TTC7A / Fold change vs veh, TTC7A / RFU, TMEM135 / Fold change vs veh, TMEM135 / RFU, DEPTOR / Fold change vs veh, DEPTOR / RFU, CPM / Fold change vs veh, CPM / RFU, DNAJB6 / Fold change vs veh, DNAJB6 / RFU, CACNA2D3 / Fold change vs veh, CACNA2D3 / RFU, DTX4 / Fold change vs veh, DTX4 / RFU, TFCP2 / Fold change vs veh, TFCP2 / RFU, GMCL1 /// GMCL1P1 / Fold change vs veh, GMCL1 /// GMCL1P1 / RFU, AEBP2 / Fold change vs veh, AEBP2 / RFU, SNHG1 /// SNORD22 /// SNORD25 /// SNORD26 /// SNORD27 /// SNORD28 /// SNORD29 /// SNORD31 / Fold change vs veh, SNHG1 /// SNORD22 /// SNORD25 /// SNORD26 /// SNORD27 /// SNORD28 /// SNORD29 /// SNORD31 / Fold change (Aza/veh), C12orf56 (ProbeSet 11735607_a_at) / Fold change (ACY-1035/veh), C12orf56 (ProbeSet 11735607_a_at) / Fold change (Aza/veh), FGFR1OP (ProbeSet 11751329_s_at) / Fold change (ACY-1035/veh), FGFR1OP (ProbeSet 11751329_s_at) / Fold change (Aza/veh), VPS36 (ProbeSet 11739960_a_at) / Fold change (ACY-1035/veh), VPS36 (ProbeSet 11739960_a_at) / RFU SYPL1 (11715823_x_at) / Fold change /veh SYPL1 (11715823_x_at) / RFU IGFBP7 (11715501_s_at) / Fold change /veh IGFBP7 (11715501_s_at) / RFU REEP3 (11722064_at) / Fold change /veh REEP3 (11722064_at) / RFU IGLL1 (11728026_x_at) / Fold change /veh IGLL1 (11728026_x_at): dose or concentration left out as unconfirmed
Settings: MV-4-11 cells, 48 hours

Nc1ncn([C@@H]2O[C@H](CO)[C@@H](O)[C@H]2O)c(=O)n1 [azacitidine]
Fold change /veh C10orf10 (11716521_a_at): 1.13
